Experimental data from patent US5703097A, “5-pyrrolyl-2-pyridylmethylsulfinyl benzimidazole derivatives” (priority 1994, dated 1997).

Assays:
H^+ /K^+ -ATPase = molecular target: T1, H^+ /K^+ -ATPase (Oryctolagus cuniculus, UniProt P27112); experiment: Inhibition of enzyme activity: in vitro inhibition of H+/K+-ATPase (TEST 1); assay type: biochemical, rabbit; settings: 5 min pre-incubation at 37° C., 4 mM ATP
T1 construct: The gastric mucous membrane was removed from a rabbit; from tissue; host or cells: rabbit gastric mucosa, microsomal fraction (77,000 g)
T1 sequence (P27112 2-1035 limits assumed): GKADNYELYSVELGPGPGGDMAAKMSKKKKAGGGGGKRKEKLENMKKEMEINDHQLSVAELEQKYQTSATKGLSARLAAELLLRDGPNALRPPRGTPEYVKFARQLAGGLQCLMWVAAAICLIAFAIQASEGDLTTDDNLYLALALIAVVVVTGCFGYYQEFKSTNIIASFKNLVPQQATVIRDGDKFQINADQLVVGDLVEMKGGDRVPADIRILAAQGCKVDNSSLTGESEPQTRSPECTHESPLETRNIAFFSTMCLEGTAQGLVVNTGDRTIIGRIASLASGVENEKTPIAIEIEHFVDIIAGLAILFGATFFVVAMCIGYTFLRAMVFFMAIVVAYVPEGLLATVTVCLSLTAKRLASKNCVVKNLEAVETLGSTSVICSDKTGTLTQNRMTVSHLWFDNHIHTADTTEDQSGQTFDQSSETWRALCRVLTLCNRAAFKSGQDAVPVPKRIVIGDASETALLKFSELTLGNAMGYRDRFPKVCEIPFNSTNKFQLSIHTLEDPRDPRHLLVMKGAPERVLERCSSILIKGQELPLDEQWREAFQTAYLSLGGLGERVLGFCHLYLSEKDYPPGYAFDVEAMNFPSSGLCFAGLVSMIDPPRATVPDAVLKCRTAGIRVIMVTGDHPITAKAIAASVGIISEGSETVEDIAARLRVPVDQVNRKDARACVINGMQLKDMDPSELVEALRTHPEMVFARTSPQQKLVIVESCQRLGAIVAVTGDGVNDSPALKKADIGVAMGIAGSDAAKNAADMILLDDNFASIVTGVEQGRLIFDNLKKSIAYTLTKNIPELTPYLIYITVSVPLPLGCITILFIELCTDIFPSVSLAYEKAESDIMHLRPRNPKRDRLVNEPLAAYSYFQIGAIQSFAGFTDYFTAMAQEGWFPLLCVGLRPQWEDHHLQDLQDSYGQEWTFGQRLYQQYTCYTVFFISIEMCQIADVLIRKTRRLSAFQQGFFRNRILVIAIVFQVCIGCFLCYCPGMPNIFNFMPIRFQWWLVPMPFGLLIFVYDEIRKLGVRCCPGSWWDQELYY
T1 sequence (P18597 whole entry partner): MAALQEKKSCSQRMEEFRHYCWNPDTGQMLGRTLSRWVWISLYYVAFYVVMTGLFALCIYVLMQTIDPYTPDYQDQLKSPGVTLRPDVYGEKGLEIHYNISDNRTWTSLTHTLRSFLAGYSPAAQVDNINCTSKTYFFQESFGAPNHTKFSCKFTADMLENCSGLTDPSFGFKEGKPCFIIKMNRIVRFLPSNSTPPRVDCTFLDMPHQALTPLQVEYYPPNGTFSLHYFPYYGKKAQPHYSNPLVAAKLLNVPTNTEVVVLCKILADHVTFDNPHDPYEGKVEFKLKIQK
Procedure: In this test, omeprazole [5-methoxy-2-[[(4-methoxy-3,5-dimethyl-2-pyridinyl)methyl]sulfinyl]-1H-benzimidazole] was used as the control compound.
The gastric mucous membrane was removed from a rabbit and then centrifuged with 77,000 g using a ultra-centrifuge to separate the microsomal fraction which was used as the source of H^+ /K^+ -ATPase enzyme for this test. 60 μg of H^+ /K^+ -ATPase was pre-incubated with the sample (the compound according to the present invention) for 5 minutes at 37° C. and then 4 mM ATP as the substrate and 4 mM Mg^++, 20 mM K^+ as the cofactor were added thereto. Then, the amount of inorganic phosphorus thus produced was determined using a spectrophotometer at 660 nm and converted into the amount of protein. […]

gastric acidity = experiment: Effect on inhibition of acidity (total acid output), in vivo, Shay method (TEST 2); set-up: species or system rat (SD male rats); settings: for Volume (acidity, total acid output) / Inhibition rate, acidity: into duodenum, 5 hours; for Volume (acidity, total acid output): pylorus-ligated rats; for Inhibition rate, acidity: vs normal group; for effect for lowering acidity: in words
Procedure: (§1) The specific test methods are as follows.
(§2) SD male rats (200±20 g) were fasted for 24 hours, except for water, and then anesthesized with ether. The abdomen of rats was incised and then the pylorus was ligated. The test compounds were suspended or dissolved in 5% CMC (carboxymethylcellulose) and injected into duodenum. After the abdomen was sutured, the rats were allowed to stand for 5 hours and then sacrificed with ether. The stomach was removed from rats and the gastric juices were collected. The gastric juice was centrifuged with 10,000 xg for 10 minutes at 4° C. to remove the precipitate. The amount of gastric juice and acidity were determined using pH 7.0 end point assay with 0.02N NaOH and then the total acid output was calculated.

gastric juice secretion = experiment: Effect on inhibition of gastric juice secretion, in vivo, Shay method (TEST 2); set-up: species or system rat (SD male rats); settings: for Volume of gastric juice / Inhibition rate, gastric juice secretion: into duodenum, 5 hours; for Volume of gastric juice: pylorus-ligated rats; for Inhibition rate, gastric juice secretion: vs normal group; for effect for inhibition of gastric acid secretion: in words
Procedure: as §1, §2

COc1ccnc(C[S+]([O-])c2nc3cc(-n4cccc4)ccc3[nH]2)c1C (stereo not drawn) [Compound 17]
IC50 (H^+ /K^+ -ATPase): 13 µM
Volume (acidity, total acid output) (gastric acidity; 3 mg/kg): 14.94 ± 3.02 μ Eq/hr
Inhibition rate, acidity (gastric acidity; 3 mg/kg): 75.02%
Volume (acidity, total acid output) (gastric acidity; 10 mg/kg): 8.50 ± 1.30 μ Eq/hr
Inhibition rate, acidity (gastric acidity; 10 mg/kg): 85.79%
Volume (acidity, total acid output) (gastric acidity; 30 mg/kg): 6.06 ± 3.05 μ Eq/hr
Inhibition rate, acidity (gastric acidity; 30 mg/kg): 89.87%
effect for lowering acidity (gastric acidity): good effects
Volume of gastric juice (gastric juice secretion; 3 mg/kg): 1.31 ± 0.18 ml/100 g BW
Inhibition rate, gastric juice secretion (gastric juice secretion; 3 mg/kg): 54.79%
Volume of gastric juice (gastric juice secretion; 10 mg/kg): 1.23 ± 0.20 ml/100 g BW
Inhibition rate, gastric juice secretion (gastric juice secretion; 10 mg/kg): 57.55%
Volume of gastric juice (gastric juice secretion; 30 mg/kg): 1.15 ± 0.15 ml/100 g BW
Inhibition rate, gastric juice secretion (gastric juice secretion; 30 mg/kg): 60.38%
effect for inhibition of gastric acid secretion (gastric juice secretion): good effects

Cc1cnc(C[S+]([O-])c2nc3cc(-n4cccc4)ccc3[nH]2)c(C)c1 (stereo not drawn) [Compound 12]
IC50 (H^+ /K^+ -ATPase): 85 µM

COc1ccnc(C[S+]([O-])c2nc3cc(-n4c(C)ccc4C)ccc3[nH]2)c1C (stereo not drawn) [Compound 15, 2-[[(4-methoxy-3-methyl)-2-pyridinyl]methylsulfinyl]-5-(1H-2,5-dimethylpyrrol-1-yl)-1H-benzimidazole]
IC50 (H^+ /K^+ -ATPase): 33 µM

Cc1c(OCC(F)(F)F)ccnc1C[S+]([O-])c1nc2cc(-n3cccc3)ccc2[nH]1 (stereo not drawn) [Compound 13, 2-[[(4-(2,2,2-trifluoroethoxy)-3-methyl)-2-pyridinyl]methylsulfinyl]-5-(1H-pyrrol-1-yl)-1H-benzimidazole]
IC50 (H^+ /K^+ -ATPase): 100 µM

CCOc1ccnc(C[S+]([O-])c2nc3cc(-n4cccc4)ccc3[nH]2)c1C (stereo not drawn) [Compound 9]
IC50 (H^+ /K^+ -ATPase): 64 µM
Volume (acidity, total acid output) (gastric acidity; 10 mg/kg): 11.84 ± 3.10 μ Eq/hr
Inhibition rate, acidity (gastric acidity; 10 mg/kg): 56.66%
Volume (acidity, total acid output) (gastric acidity; 30 mg/kg): 3.80 ± 1.54 μ Eq/hr
Inhibition rate, acidity (gastric acidity; 30 mg/kg): 86.09%
effect for lowering acidity (gastric acidity): good effects
Volume of gastric juice (gastric juice secretion; 10 mg/kg): 1.50 ± 0.15 ml/100 g BW
Inhibition rate, gastric juice secretion (gastric juice secretion; 10 mg/kg): 36.04%
Volume of gastric juice (gastric juice secretion; 30 mg/kg): 1.14 ± 0.12 ml/100 g BW
Inhibition rate, gastric juice secretion (gastric juice secretion; 30 mg/kg): 51.46%
effect for inhibition of gastric acid secretion (gastric juice secretion): good effects

Cc1ccnc(C[S+]([O-])c2nc3cc(-n4cccc4)ccc3[nH]2)c1 (stereo not drawn) [Compound 7]
IC50 (H^+ /K^+ -ATPase): > 400 µM

[O-][S+](Cc1ccccn1)c1nc2cc(-n3cccc3)ccc2[nH]1 (stereo not drawn) [Compound 11]
IC50 (H^+ /K^+ -ATPase): > 400 µM

Cc1c(OCC(F)(F)C(F)(F)F)ccnc1C[S+]([O-])c1nc2cc(-n3cccc3)ccc2[nH]1 (stereo not drawn) [Compound 14, 2-[[(4-(2,2,3,3,3-pentafluoropropoxy)-3-methyl)-2-pyridinyl]methylsulfinyl]-5-(1H-pyrrol-1-yl)-1H-benzimidazole]
IC50 (H^+ /K^+ -ATPase): > 400 µM

COc1ccnc(C[S+]([O-])c2nc3cc(-n4cccc4)ccc3[nH]2)c1 (stereo not drawn) [Compound 8]
IC50 (H^+ /K^+ -ATPase): 91 µM
Volume (acidity, total acid output) (gastric acidity; 10 mg/kg): 14.29 ± 2.81 μ Eq/hr
Inhibition rate, acidity (gastric acidity; 10 mg/kg): 60.81%
Volume (acidity, total acid output) (gastric acidity; 30 mg/kg): 2.92 ± 1.42 μ Eq/hr
Inhibition rate, acidity (gastric acidity; 30 mg/kg): 91.99%
effect for lowering acidity (gastric acidity): good effects
Volume of gastric juice (gastric juice secretion; 10 mg/kg): 1.42 ± 0.24 ml/100 g BW
Inhibition rate, gastric juice secretion (gastric juice secretion; 10 mg/kg): 28.85%
Volume of gastric juice (gastric juice secretion; 30 mg/kg): 0.87 ± 0.15 ml/100 g BW
Inhibition rate, gastric juice secretion (gastric juice secretion; 30 mg/kg): 56.09%
effect for inhibition of gastric acid secretion (gastric juice secretion): good effects

COc1ccnc(CSc2nc3cc(-n4cccc4)ccc3[nH]2)c1C [Compound 1, 2-[[(4-methoxy-3-methyl)-2-pyridinyl]methylthio]-5-(1H-pyrrol-1-yl)-1H-benzimidazole]
IC50 (H^+ /K^+ -ATPase): > 400 µM

COc1ccnc(CS(=O)(=O)c2nc3cc(-n4cccc4)ccc3[nH]2)c1C [Compound 3]
IC50 (H^+ /K^+ -ATPase): > 400 µM

Cc1cnc(C[S+]([O-])c2nc3cc(-n4cccc4)ccc3[nH]2)cc1C (stereo not drawn) [Compound 6]
IC50 (H^+ /K^+ -ATPase): ~400 µM

CCc1cnc(C[S+]([O-])c2nc3cc(-n4cccc4)ccc3[nH]2)cc1OC (stereo not drawn) [Compound 10]
IC50 (H^+ /K^+ -ATPase): 8.8 µM

COc1c(C)cnc(C[S+]([O-])c2nc3cc(-n4cccc4)ccc3[nH]2)c1C (stereo not drawn) [Compound 4]
IC50 (H^+ /K^+ -ATPase): 210 µM
